Laboratory results reported in the supplement of paper PMC10331698.
± gives the standard deviation of the averaged measurements.

Legend:
Experiment in all cases: level (log10 ratio to DMSO vehicle control); higher = higher biomarker level / cell amount than vehicle control
Details in all cases: in DMSO
[1] = compound: FC(F)C(F)(F)COCC1CO1 [((2,2,3,3-Tetrafluoropropoxy)methyl)oxirane]
Method: (§1)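 BioMAP Diversity Plus panel of 12 human primary cell co-culture systems (3C, 4H, LPS, SAg, BT, BF4T, BE3C, CASM3C, HDF3CGF, KF3CT, MyoF, Mphg). Compounds were added 1 h before stimulation and left for 24 h (MyoF 48 h; BT 72 h for soluble read-outs or 6 d for IgG). Biomarkers were read by ELISA, cytotoxicity by SRB, PBMC viability and proliferation by Alamar Blue. Each well value was divided by the mean of 8 DMSO control wells on the same plate and log10 transformed; duplicate blinded samples were tested at 4 concentrations.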

[2] = compound: O=C(O)C(F)(F)OC(F)(F)C(F)(F)OC(F)(F)F [Perfluoro-3,6-dioxaheptanoic acid]
Method: as §1

[3] = compound: C=C(C)C(=O)OCCC(F)(F)C(F)(F)C(F)(F)C(F)(F)C(F)(C(F)(F)F)C(F)(F)F [(Perfluoro-5-methylhexyl)ethyl 2-methylprop-2-enoate]
Method: as §1

[4] = compound: O=C(O)C(F)(F)C(F)(F)OC(F)(F)F [Perfluoro-3-methoxypropanoic acid]
Method: as §1

Perfluoroheptanoic acid = compound: O=C(O)C(F)(F)C(F)(F)C(F)(F)C(F)(F)C(F)(F)C(F)(F)F [Perfluoroheptanoic acid]
Method: as §1

[5] = compound: O=C(O)C(F)(F)C(F)(F)C(F)(F)C(F)(F)C(F)(F)C(F)(F)C(F)(F)C(F)F [9-H-Perfluorononanoic acid]
Method: as §1

| Test System | level (log10) ([1]; 6700 nM) | level (log10) ([1]; 20000 nM) | level (log10) ([1]; 60000 nM) | level (log10) ([2]; 6700 nM) | level (log10) ([2]; 20000 nM) | level (log10) ([2]; 60000 nM) | level (log10) ([3]; 6700 nM) | level (log10) ([3]; 20000 nM) | level (log10) ([4]; 6700 nM) | level (log10) ([4]; 20000 nM) | level (log10) ([4]; 60000 nM) | level (log10) (Perfluoroheptanoic acid; 6700 nM) | level (log10) (Perfluoroheptanoic acid; 20000 nM) | level (log10) (Perfluoroheptanoic acid; 60000 nM) | level (log10) ([5]; 6700 nM) | level (log10) ([5]; 20000 nM) | level (log10) ([5]; 60000 nM) |
| --- | --- | --- | --- | --- | --- | --- | --- | --- | --- | --- | --- | --- | --- | --- | --- | --- | --- |
| lMphg:CCL2/MCP-1 | -0.039 ± 0.034 | -0.018 ± 0.048 | -0.0095 ± 0.029 | 0.0035 ± 0.00071 | -0.006 ± 0.0099 | 0 ± 0.0042 | 0.014 ± 0.0099 | 0.0175 ± 0.037 | -0.0175 ± 0.025 | -0.0225 ± 0.029 | -0.0075 ± 0.028 | -0.0365 ± 0.021 | -0.019 ± 0.0042 | 0.027 ± 0.023 | -0.0085 ± 0.0021 | -0.0215 ± 0.013 | 0.014 ± 0.04 |
| lMphg:CCL3/MIP-1alpha | -0.027 ± 0.059 | -0.0385 ± 0.084 | -0.0025 ± 0.026 | -0.0185 ± 0.026 | -0.0065 ± 0.012 | -0.0065 ± 0.019 | -0.008 ± 0.034 | -0.0125 ± 0.044 | -0.0175 ± 0.012 | -0.053 ± 0.0071 | -0.0175 ± 0.019 | -0.0265 ± 0.013 | -0.0075 ± 0.0078 | 0.018 ± 0.017 | -0.005 | -0.0065 ± 0.0021 | 0.0195 ± 0.036 |
| lMphg:CD40 | 0.0185 ± 0.061 | 0.0195 ± 0.029 | 0.0015 ± 0.011 | -0.0125 ± 0.0035 | 0.0065 ± 0.028 | -0.0055 ± 0.036 | 0.0035 ± 0.011 | -0.0085 ± 0.0078 | -0.0295 ± 0.03 | -0.0165 ± 0.0021 | -0.0225 ± 0.04 | -0.0045 ± 0.018 | -0.0265 ± 0.012 | -0.028 ± 0.027 | 0.014 ± 0.011 | 0.003 ± 0.017 | -0.01 ± 0.024 |
| lMphg:CD62E/E-Selectin | -0.0155 ± 0.0064 | -0.0195 ± 0.029 | -0.035 ± 0.011 | 0.0105 ± 0.0021 | 0.003 ± 0.017 | 0.061 | -0.0135 ± 0.011 | -0.01 ± 0.017 | -0.012 ± 0.018 | -0.037 ± 0.03 | 0.019 ± 0.075 | -0.026 ± 0.0028 | 0 ± 0.024 | 0.025 ± 0.018 | -0.005 ± 0.037 | 0.0085 ± 0.035 | 0.0585 ± 0.021 |
| lMphg:CD69 | -0.048 ± 0.02 | -0.001 ± 0.0071 | -0.028 ± 0.033 | 0.0255 ± 0.069 | 0.0085 ± 0.033 | 0.058 ± 0.0085 | -0.064 ± 0.082 | -0.0825 ± 0.08 | -0.0495 ± 0.043 | -0.0005 ± 0.026 | 0.017 ± 0.04 | -0.019 ± 0.038 | -0.021 ± 0.041 | -0.0205 ± 0.064 | -0.0445 ± 0.088 | -0.038 ± 0.054 | -0.072 ± 0.0099 |
| lMphg:CD106/VCAM-1 | -0.016 ± 0.038 | -0.0155 ± 0.025 | -0.017 ± 0.017 | -0.004 ± 0.02 | 0.007 ± 0.014 | -0.004 ± 0.04 | -0.0315 ± 0.011 | -0.014 ± 0.0057 | -0.0005 ± 0.035 | -0.0035 ± 0.021 | -0.0235 ± 0.0035 | -0.0115 ± 0.005 | 0.001 ± 0.0014 | -0.0095 ± 0.032 | -0.008 ± 0.018 | 0.0185 ± 0.00071 | 0.0075 ± 0.023 |
| lMphg:CXCL8/IL-8 | -0.0125 ± 0.066 | -0.001 ± 0.017 | -0.005 ± 0.011 | 0.026 ± 0.017 | 0.068 ± 0.051 | 0.167 ± 0.074 | -0.0035 ± 0.011 | 0.006 ± 0.0028 | -0.03 ± 0.065 | -0.0275 ± 0.025 | -0.001 ± 0.044 | -0.0125 ± 0.0035 | 0.032 ± 0.0042 | 0.18 ± 0.035 | 0.033 ± 0.021 | 0.0415 ± 0.019 | 0.112 ± 0.0014 |
| lMphg:IL-1alpha | -0.004 ± 0.017 | -0.039 ± 0.035 | -0.0235 ± 0.033 | -0.0025 ± 0.046 | 0.007 ± 0.035 | -0.005 ± 0.027 | 0.016 ± 0.018 | 0.0385 ± 0.026 | -0.008 ± 0.03 | -0.0055 ± 0.033 | 0.0115 ± 0.005 | -0.0275 ± 0.042 | -0.0025 ± 0.0035 | 0.0145 ± 0.012 | -0.002 ± 0.017 | 0.0105 ± 0.0092 | 0.042 ± 0.057 |
| lMphg:M-CSF | -0.0155 ± 0.013 | 0 ± 0.024 | -0.0265 ± 0.015 | -0.011 ± 0.016 | 0.003 ± 0.013 | -0.0345 ± 0.029 | -0.005 ± 0.042 | 0.015 ± 0.042 | -0.0075 ± 0.012 | -0.025 ± 0.0071 | -0.0025 ± 0.037 | -0.006 ± 0.0014 | -0.001 ± 0.016 | 0.005 ± 0.0071 | -0.008 ± 0.028 | -0.0035 ± 0.018 | -0.0045 ± 0.013 |
| lMphg:SRB | -0.008 ± 0.0042 | 0 ± 0.0028 | -0.0125 ± 0.0021 | -0.0015 ± 0.0092 | 0.0025 ± 0.011 | -0.002 ± 0.016 | -0.0035 ± 0.0035 | -0.0105 ± 0.0021 | -0.006 ± 0.0014 | -0.0185 ± 0.005 | 0 ± 0.0028 | -0.013 ± 0.02 | -0.01 ± 0.0028 | -0.002 ± 0.0014 | 0.0005 ± 0.00071 | 0.002 ± 0.0057 | -0.0115 ± 0.005 |
| lMphg:SRB-Mphg | 0.0075 ± 0.016 | 0.021 ± 0.025 | 0.02 ± 0.033 | -0.053 ± 0.0014 | -0.079 ± 0.13 | -0.076 ± 0.19 | 0.0015 ± 0.011 | -0.0095 ± 0.021 | -0.007 ± 0.02 | -0.0165 ± 0.019 | -0.022 ± 0.025 | -0.003 ± 0.014 | 0.005 ± 0.0071 | 0.004 ± 0.0042 | 0.0225 ± 0.018 | 0.043 ± 0.013 | 0.0175 ± 0.032 |
| lMphg:sIL-10 | -0.087 ± 0.024 | -0.043 ± 0.027 | 0.0075 ± 0.018 | -0.0215 ± 0.0035 | 0.0045 ± 0.012 | -0.108 ± 0.044 | 0.0215 ± 0.029 | -0.0195 ± 0.12 | -0.0385 ± 0.013 | -0.064 ± 0.024 | -0.0485 ± 0.044 | -0.017 ± 0.018 | 0.007 ± 0.027 | -0.0945 ± 0.032 | -0.0465 ± 0.00071 | -0.0225 ± 0.04 | -0.642 ± 0.04 |
